From US6420558B1, “Aminopiperidine derivates as integrin αvβ3 antagonists” (Meiji Seika Kaisha, Ltd., priority 1998, dated 2002) come the findings set out here.

In assay [1] the target is T1, integrin α5β1 (fibronectin receptor purified from the human placenta) (Homo sapiens, UniProt P05556+P08648).
T1 construct: a fibronectin receptor (protein content: 52.1 μg/ml) purified from the human placenta; from tissue; host or cells: human placenta
Kind of assay: α5β1 binding assay (fibronectin-fibronectin receptor binding assay). As to conditions: fibronectin binding to human placenta fibronectin receptor; read-out: α5β1 Binding inhibitory activity. How it is done:
Integrin α5β1 antagonistic activity (lethality) was measured for the compounds according to the present invention in a fibronectin-fibronectin receptor binding assay system in accordance with the method of Kouns et al. (W. C. Kouns, D. Kirchhofer, P. Hadvary, A. Edenhofer, T. Weller, G. Pfenninger, H. R. Baumgartner, L. K. Jennings, and B. Steiner, Blood, 80, 2539-2547 (1992)).
Specifically, a fibronectin receptor (protein content: 52.1 μg/ml) purified from the human placenta by the method of Pytela et al. (R. Pytela, M. D. Pierschbacher, S. Argraves, S. Suzuki, and E. Ruoslahti, Method in Enzymology, 144, 475-489 (1987)) was diluted 25 times with TBS (20 mM Tris-HCl, 150 mM NaCl, 1 mM CaCl2, 1 mM MgCl2, pH 7.4), and distributed and coated on wells (50 μl/well) of a plate (Maxisorp, Nunc, 96 well Immuno Plate). The plate was then allowed to stand at 4° C. for one day, washed twice with TBS (200 μl/well), and then subjected to blocking with TBS (150 μl/well) containing 3% skim milk (DIFCO) at 4° C. overnight. After washing twice with TBS (200 μl/well) containing 0.05% Tween-20 and then washing twice with TBS (200 μl/well), purification was carried out according to the method of E. Engvall et al. (E. Engvall, E. Ruoslahti, and E. J. Miller, J. Exp. Med., 147, 1584-1595 (1978)), and 50 […] of fibronectin adjusted to 0.2 μg/ml by the addition of TBS (TBS-Tween) containing 0.01% Tween-20 was mixed with 50 μl of each test compound adjusted to each concentration in the wells, and a reaction was allowed to proceed at room temperature for 3 hr. After the completion of the reaction, the wells were washed five times with TBS-Tween. A solution prepared by diluting a peroxidase-labeled fibronectin antibody (CAPPEL) 500 times with TBS-Tween was added in an amount of 50 μl per well, and a reaction was allowed to proceed at room temperature for 1.5 hr. After washing five times with TBS-Tween (200 μl/well), ABTS (SIGMA) adjusted to 1 mg/ml by the addition of a ten-fold diluted POD-buffer (ZYMED) was added in an amount of 50 μl/well, and a reaction was allowed to proceed for 5 to 10 min. A 0.1 M citric acid buffer (pH 4.3) containing 0.05% NaN3 was added in an amount of 50 μl/well to stop the reaction, followed by the measurement of the absorbance at 415 nm with a microplate reader (MTP 32, Corona Electric) (reference: 675 nm). The total binding was defined as the absorbance after a reaction using 50 μl of TBS-Tween instead of the test compound, and the non-specific binding (100% inhibition) was defined as the absorbance after a reaction using 50 μl of TBS-Tween containing 2×10^−3 M RGDS. The inhibition was calculated by the following equation: [formula]
(§1) IC50 was determined from a primary regression line of the logarithm of each concentration of the test compound and the logarithm of (100−inhibition)/inhibition.

In another assay the target is GP IIb/IIIa (Homo sapiens, UniProt P05106+P08514). Kind of assay: GP IIb/IIIa antagonistic activity (method of Pharmacological Test 2 in WO 94/21599). It is filed as binding. How it is done:
(§2) GP IIb/IIIa Antagonistic Activity and Human Platelet Aggregation Inhibitory Activity
GP IIb/IIIa antagonistic activity was measured for the compounds according to the present invention. The measurement of the GP IIb/IIIa antagonistic activity was carried out according to the method described in Pharmacological Test 2 in WO 94/21599.

Assay [2] concerns the target T2, integrin αvβ3 (vitronectin receptor purified from the human placenta) (Homo sapiens, UniProt P05106+P06756).
T2 construct: a vitronectin receptor (protein content: 118 μg/ml) purified from the human placenta; from tissue; host or cells: human placenta
Kind of assay: αvβ3 binding assay (vitronectin-vitronectin receptor binding assay). Conditions: vitronectin binding to human placenta vitronectin receptor; read-out: integrin αvβ3 antagonistic activity, IC50 value. How it is done:
Integrin αvβ3 antagonistic activity was measured for the compounds according to the present invention in a vitronectin-vitronectin receptor binding assay system in accordance with the method of Kouns et al. (W. C. Kouns, D. Kirchhofer, P. Hadvary, A. Edenhofer, T. Weller, G. Pfenninger, H. R. Baumgartner, L. K. Jennings and B. Steiner, Blood, 80, 2539-2547 (1992)).
Specifically, a vitronectin receptor (protein content: 118 μg/ml) purified from the human placenta in accordance with the method of Pytela et al. (R. Pytela, M. D. Pierschbacher, S. Argraves, S. Suzuki, and E. Ruoslahti, Method in Enzymology, 144, 475-489 (1987)) was diluted 50 times with TBS (20 mM Tris-HCl, 150 mM NaCl, 1 mM CaCl2, 1 mM MgCl2, pH 7.4), and distributed and coated on wells (50 μl/well) of a plate (Maxisorp, Nunc, 96 well Immuno Plate). The plate was then allowed to stand at 4° C. for 1 day, washed twice with TBS (200 μl/well), and then subjected to blocking with TBS (150 μl/well) containing 1% bovine serum albumin (SIGMA) at 4° C. overnight. After washing twice with TBS (200 μl/well), 50 μl of vitronectin (CALBIOCHEM) adjusted to 0.2 μg/ml by the addition of TBS (TBS-Tween) containing 0.01% Tween-20 was mixed with 50 μl of each test compound adjusted to each concentration in wells, and a reaction was allowed to proceed at room temperature for 4 hr. After the completion of the reaction, the wells were washed five times with TBS-Tween. A solution prepared by diluting anti-vitronectin rabbit antiserum (CHEMICON) 500 times with TBS-Tween was added as a primary antibody in an amount of 50 μl/well, and a reaction was allowed to proceed at room temperature for 1.5 hr. After washing five times with 200 μl/well of TBS-Tween, a peroxidase (POD)-labeled anti-rabbit IgG antibody solution (CAPPEL) diluted 500 times with TBS-Tween was added as a secondary antibody in an amount of 50 μl/well, and a reaction was allowed to proceed at room temperature for 1.5 hr. After washing five times with TBS-Tween (200 μl/well), ABTS (2,2′-azino-bis(3-ethylbenzthiazoline-6-sulfonic acid), SIGMA) was adjusted to 1 mg/ml by the addition of a ten-fold diluted POD-buffer (ZYMED), and added in an amount of 50 μl/well, and a reaction was allowed to proceed for 5 to 10 min. A 0.1 M citric acid buffer (pH 4.3) containing 0.05% NaN3 was added in an amount of 50 μl/well to stop the reaction, followed by the measurement of the absorbance at 415 nm with a microplate reader (MTP 32, Corona Electric) (reference: 675 nm). The total binding was defined as the absorbance after a reaction using 50 μl of TBS-Tween instead of the test compound, and the non-specific binding (100% inhibition) was defined as the absorbance after a reaction using 50 μl of TBS-Tween containing 2×10^−3 M RGDS. The inhibition was calculated by the following equation: [formula]
as §1

The subject of assay [3] is human platelet aggregation. The assay is described as follows: Human platelet aggregation inhibitory activity (method of Pharmacological Test 1 in WO 94/21599). As to conditions: human platelets, read-out: inhibition of human platelet aggregation, IC5. value. In kind it is cell-based. How it is done: as §2
Human platelet aggregation inhibitory activity was measured for the compounds according to the present invention. The measurement of the human platelet aggregation activity was carried out according to the method described in Pharmacological Test 1 in WO 94/21599.

T2 sequence (P06756 31-889 limits assumed): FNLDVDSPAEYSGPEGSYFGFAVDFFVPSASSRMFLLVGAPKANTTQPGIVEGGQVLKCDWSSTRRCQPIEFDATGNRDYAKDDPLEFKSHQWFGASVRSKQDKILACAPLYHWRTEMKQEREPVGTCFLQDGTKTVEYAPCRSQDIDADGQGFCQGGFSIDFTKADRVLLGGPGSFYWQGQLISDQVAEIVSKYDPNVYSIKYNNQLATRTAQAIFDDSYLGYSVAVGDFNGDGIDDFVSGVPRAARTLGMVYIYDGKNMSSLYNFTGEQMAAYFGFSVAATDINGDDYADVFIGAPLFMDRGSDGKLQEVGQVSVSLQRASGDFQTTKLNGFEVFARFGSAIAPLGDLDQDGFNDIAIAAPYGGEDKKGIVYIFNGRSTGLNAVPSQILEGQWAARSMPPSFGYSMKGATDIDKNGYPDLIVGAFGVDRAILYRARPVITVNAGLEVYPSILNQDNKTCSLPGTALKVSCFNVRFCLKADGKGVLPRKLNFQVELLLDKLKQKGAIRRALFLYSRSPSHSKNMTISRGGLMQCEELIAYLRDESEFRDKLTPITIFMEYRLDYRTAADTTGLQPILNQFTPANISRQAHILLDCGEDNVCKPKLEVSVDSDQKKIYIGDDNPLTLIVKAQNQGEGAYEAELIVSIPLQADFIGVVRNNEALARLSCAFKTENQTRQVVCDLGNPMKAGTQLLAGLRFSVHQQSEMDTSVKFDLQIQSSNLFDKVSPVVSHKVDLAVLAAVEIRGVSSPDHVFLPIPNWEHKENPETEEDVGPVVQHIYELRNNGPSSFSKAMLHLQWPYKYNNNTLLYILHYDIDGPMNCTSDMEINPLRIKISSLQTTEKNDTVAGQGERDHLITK
T2 sequence (P06756 891-1048 limits assumed): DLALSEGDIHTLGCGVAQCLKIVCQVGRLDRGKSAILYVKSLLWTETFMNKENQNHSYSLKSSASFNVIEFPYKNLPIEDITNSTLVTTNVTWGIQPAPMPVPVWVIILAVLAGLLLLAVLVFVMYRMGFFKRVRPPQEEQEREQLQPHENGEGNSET
T2 sequence (P05106 27-788): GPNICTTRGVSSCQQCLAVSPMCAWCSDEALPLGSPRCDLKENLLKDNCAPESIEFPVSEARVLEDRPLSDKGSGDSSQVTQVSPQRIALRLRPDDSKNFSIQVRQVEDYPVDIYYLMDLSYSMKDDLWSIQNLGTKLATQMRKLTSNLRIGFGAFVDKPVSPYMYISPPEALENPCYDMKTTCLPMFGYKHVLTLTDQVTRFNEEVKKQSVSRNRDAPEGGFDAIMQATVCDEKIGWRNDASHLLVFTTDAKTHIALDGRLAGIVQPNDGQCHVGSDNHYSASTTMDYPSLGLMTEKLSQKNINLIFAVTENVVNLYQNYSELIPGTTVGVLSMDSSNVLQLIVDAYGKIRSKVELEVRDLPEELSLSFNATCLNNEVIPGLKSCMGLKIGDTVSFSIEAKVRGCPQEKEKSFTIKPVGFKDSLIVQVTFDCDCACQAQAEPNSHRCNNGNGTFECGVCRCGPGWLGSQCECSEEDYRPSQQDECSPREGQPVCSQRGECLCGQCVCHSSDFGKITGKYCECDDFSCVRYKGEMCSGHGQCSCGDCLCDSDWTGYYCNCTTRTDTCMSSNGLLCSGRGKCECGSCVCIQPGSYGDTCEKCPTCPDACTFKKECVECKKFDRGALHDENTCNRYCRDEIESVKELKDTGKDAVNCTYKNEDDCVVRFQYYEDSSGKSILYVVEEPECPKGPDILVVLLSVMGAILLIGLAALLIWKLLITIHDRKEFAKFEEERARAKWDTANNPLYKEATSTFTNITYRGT
T1 sequence (P08648 42-894 limits assumed): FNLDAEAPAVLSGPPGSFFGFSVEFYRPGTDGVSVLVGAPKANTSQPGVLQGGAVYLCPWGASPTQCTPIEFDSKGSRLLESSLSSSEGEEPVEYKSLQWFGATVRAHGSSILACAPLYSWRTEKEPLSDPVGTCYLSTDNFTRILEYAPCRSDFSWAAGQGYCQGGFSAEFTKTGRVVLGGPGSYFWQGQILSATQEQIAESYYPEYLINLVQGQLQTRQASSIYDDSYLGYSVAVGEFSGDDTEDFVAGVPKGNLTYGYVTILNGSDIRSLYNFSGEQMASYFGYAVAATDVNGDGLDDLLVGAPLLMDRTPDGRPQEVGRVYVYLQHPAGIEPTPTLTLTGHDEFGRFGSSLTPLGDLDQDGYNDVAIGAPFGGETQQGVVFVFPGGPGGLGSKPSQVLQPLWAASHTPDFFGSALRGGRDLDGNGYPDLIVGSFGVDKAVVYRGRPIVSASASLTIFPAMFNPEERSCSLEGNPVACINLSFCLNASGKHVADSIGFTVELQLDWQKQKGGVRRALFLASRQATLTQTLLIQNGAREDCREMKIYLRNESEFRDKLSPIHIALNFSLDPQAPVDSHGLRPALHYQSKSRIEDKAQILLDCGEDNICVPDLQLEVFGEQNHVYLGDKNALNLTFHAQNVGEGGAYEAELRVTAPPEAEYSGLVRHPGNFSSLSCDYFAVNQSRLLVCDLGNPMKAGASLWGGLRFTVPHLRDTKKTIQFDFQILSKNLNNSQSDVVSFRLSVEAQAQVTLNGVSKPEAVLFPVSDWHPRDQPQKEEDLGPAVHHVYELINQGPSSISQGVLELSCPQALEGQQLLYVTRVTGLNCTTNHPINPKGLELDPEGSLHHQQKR
T1 sequence (P08648 895-1049 limits assumed): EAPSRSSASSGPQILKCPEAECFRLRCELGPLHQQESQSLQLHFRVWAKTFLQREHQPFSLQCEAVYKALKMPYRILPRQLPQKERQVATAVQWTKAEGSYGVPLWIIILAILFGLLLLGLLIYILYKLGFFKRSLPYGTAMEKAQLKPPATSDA
T1 sequence (P05556 21-798): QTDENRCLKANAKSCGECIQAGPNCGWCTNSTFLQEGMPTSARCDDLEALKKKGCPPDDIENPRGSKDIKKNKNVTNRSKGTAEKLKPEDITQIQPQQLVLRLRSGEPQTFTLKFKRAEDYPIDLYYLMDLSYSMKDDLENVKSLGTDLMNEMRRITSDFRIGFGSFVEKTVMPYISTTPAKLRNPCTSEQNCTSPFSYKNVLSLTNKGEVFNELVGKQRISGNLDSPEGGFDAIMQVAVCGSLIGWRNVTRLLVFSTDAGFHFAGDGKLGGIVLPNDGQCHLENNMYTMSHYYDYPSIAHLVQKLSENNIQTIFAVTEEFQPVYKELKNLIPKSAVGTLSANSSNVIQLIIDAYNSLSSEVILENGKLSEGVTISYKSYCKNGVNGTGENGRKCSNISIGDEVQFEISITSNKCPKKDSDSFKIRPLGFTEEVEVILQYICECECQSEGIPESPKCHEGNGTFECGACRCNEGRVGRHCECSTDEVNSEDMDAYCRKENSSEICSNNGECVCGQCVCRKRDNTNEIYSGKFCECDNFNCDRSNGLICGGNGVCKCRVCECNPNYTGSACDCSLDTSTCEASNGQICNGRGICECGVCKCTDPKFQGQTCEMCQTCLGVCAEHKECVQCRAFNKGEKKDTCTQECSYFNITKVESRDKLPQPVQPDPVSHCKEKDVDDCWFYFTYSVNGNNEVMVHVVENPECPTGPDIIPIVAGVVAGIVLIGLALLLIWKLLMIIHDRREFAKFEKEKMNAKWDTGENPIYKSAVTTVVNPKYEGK
Sequence of GP IIb/IIIa (P08514 32-887 limits assumed): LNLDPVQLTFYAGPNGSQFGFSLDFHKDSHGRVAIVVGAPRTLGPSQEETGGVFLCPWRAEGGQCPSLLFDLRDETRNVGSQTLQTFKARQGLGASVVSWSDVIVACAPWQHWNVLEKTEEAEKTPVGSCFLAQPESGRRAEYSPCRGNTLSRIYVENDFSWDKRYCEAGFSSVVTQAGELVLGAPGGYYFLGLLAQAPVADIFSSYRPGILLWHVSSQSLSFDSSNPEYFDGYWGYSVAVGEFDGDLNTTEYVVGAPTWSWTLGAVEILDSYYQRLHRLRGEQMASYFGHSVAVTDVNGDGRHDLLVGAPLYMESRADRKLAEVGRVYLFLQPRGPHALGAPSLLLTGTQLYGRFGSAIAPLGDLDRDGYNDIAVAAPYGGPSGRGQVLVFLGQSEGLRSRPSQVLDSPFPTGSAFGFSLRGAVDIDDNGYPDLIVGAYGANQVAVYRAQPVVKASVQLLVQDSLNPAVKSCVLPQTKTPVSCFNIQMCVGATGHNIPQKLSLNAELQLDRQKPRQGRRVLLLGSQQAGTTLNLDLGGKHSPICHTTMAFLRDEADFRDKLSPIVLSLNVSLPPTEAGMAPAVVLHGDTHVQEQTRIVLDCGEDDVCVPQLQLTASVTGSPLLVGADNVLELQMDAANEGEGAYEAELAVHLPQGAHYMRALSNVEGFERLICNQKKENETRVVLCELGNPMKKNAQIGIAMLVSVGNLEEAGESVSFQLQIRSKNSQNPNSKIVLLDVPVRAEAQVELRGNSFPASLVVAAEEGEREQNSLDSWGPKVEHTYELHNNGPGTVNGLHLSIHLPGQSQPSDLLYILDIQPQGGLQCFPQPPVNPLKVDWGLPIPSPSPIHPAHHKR
Sequence of GP IIb/IIIa (P08514 891-1039 limits assumed): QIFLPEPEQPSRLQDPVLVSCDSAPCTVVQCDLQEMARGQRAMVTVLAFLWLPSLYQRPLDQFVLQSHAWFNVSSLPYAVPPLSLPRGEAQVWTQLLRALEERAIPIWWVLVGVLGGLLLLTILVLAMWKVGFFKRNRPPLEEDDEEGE
Sequence of GP IIb/IIIa (P05106 27-788): as the sequence (P05106 27-788) above

For `O=C(NC[C@H](NS(=O)(=O)c1ccccc1)C(=O)O)c1ccc(N2CCC(NC3=NCCCN3)CC2)cc1` [Example 3, (2S)-Benzenesulfonylamino-3-[4-{4-(1,4,5,6-tetrahydropyrimidin-2-ylamino)piperidin-1-yl}benzoyl-amino]propionic acid], the IC50 in assay [1] turned out to be 1600 nM.
As to `O=C(NC[C@H](NS(=O)(=O)c1ccccc1)C(=O)O)c1ccc(N2CCC(Nc3nc4ccccc4[nH]3)CC2)cc1` [Example 10, (2S)-Benzenesulfonylamino-3-[4-{4-(1H-benzimidazol-2-ylamino)piperidin-1-yl}benzoylamino]-propionic acid], the IC50 in assay [1] was 1600 nM.
As for `O=C(N[C@@H](CNC(=O)c1ccc(N2CCC(Nc3nc4ccccc4[nH]3)CC2)cc1)C(=O)O)OCc1ccccc1` [Example 24, 3-[4-{4-(1H-Benzimidazol-2-ylamino)piperidin-1-yl}benzoylamino]-(2S)-{(benzyloxy-carbonyl)amino}propionic acid], the figures for the IC50 (at GP IIb/IIIa; in assay [1]) were ≤ 1 nM and 6900 nM, respectively.
Turning to `CCCCS(=O)(=O)N[C@@H](CNC(=O)c1ccc(N2CCC(Nc3nc4ccccc4[nH]3)CC2)cc1)C(=O)O` [Example 28, (2S)-Butane-1-sulfonylamino-3-[4-{4-(1H-benzimidazol-2-ylamino)piperidin-1-yl}benzoylamino]-propionic acid], the IC50 at GP IIb/IIIa is ≤ 1 nM; in assay [1], 1300 nM; in assay [2], ≤ 1 nM.
Take `O=C(NC[C@H](NS(=O)(=O)c1ccccc1)C(=O)O)c1ccc(N2CCC(NC3=NCCN3)CC2)cc1` [Example 40, (2S)-Benzenesulfonylamino-3-[4-{4-(4.5-dihydro-1H-imidazol-2-ylamino)piperidin-1-yl}benzoyl-amino]propionic acid]: the IC50 in assay [3] is ≤ 90 nM; against GP IIb/IIIa, ≤ 1 nM.
As for `O=C(NC[C@H](NS(=O)(=O)c1ccccc1)C(=O)O)c1ccc(N2CCC(NC3=NCCCCN3)CC2)cc1` [Example 42, (2S)-Benzenesulfonylamino-3-[4-{4-(4,5,6,7-tetrahydro-1H-[1,3]diazepin-2-ylamino)piperidin-1-yl}-benzoylamino]propionic acid], the IC50 in assay [3] was ≤ 90 nM; on GP IIb/IIIa it was ≤ 1 nM; in assay [2], ≤ 1 nM.
As to `CN(C1=NCCCN1)C1CCN(c2ccc(C(=O)NC[C@H](NS(=O)(=O)c3ccccc3)C(=O)O)cc2)CC1` [Example 45, (2S)-Benzenesulfonylamino-3-[4-[4-[{N-methyl-N-(1,4,5,6-tetrahydropyrimidin-2-yl)}amino]-piperidin-1-yl]benzoylamino]propionic acid], the IC50 in assay [3] was ≤ 90 nM; against GP IIb/IIIa, ≤ 1 nM.
With `O=C(NC[C@H](NS(=O)(=O)c1ccccc1)C(=O)O)c1ccc(N2CCC(NC3=NCCN3)CC2)c(F)c1` [Example 54, (2S)-Benzenesulfonylamino-3-[3-fluoro-4-{4-(4,5-dihydro-1H-imidazol-2-ylamino)piperidin-1-yl}-benzoylamino]propionic acid], the IC50 was ≤ 90 nM in assay [3], ≤ 1 nM on GP IIb/IIIa and ≤ 1 nM in assay [2].
Turning to `Nc1ccc(S(=O)(=O)N[C@@H](CNC(=O)c2ccc(N3CCC(NC4=NCCCN4)CC3)c(F)c2)C(=O)O)cc1` [Example 68, (2S)-(4-Aminobenzenesulfonyl)amino-3-[3-fluoro-4-{4-(1,4,5,6-tetrahydropyrimidin-2-ylamino)-piperidin-1-yl}benzoylamino]propionic acid], the figures for the IC50 (at GP IIb/IIIa; in assay [1]; in assay [2]) were ≤ 1 nM, 11500 nM and ≤ 1 nM, respectively.
